Results: US20240239790A1, “7-Morpholino-1,6-Naphthyridin-5-yl Derivatives and Pharmaceutical Compositions Thereof Useful as DNA-PK Inhibitor” (adMare Therapeutics Society, priority 2021, published 2024)

Experiments:
[1] = biological target: T1, DNA-PK phosphorylation at Serine 2056 (Homo sapiens, UniProt P78527); experiment: Cellular Assay for Inhibition of DNA-PK Phosphorylation at Serine 2056 in FaDu cells (sandwich ELISA, neocarzinostatin); format: cell-based; details: pSer2056 DNA-PK, neocarzinostatin 1 μg/mL, Table 1
T1 construct: FaDu cells were purchased from ATCC; host or cells: FaDu
Procedure, shortened: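 FaDu cells pre-treated with compound (0.3% DMSO) for 1 h, then neocarzinostatin 1 μg/mL final added for 2 h to induce DSBs. Protein-normalised lysates read by sandwich ELISA for total and pSer2056 DNA-PK; % inhibition normalised between DMSO and NCS controls, IC50 from variable-slope log(inhibitor) fit.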

[2] = Hepatocyte Stability Assay, mouse hepatocytes; format: in vitro ADME
Procedure, shortened: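 Pooled cryopreserved hepatocytes (male CD-1 mice, ≥10; mixed-gender human donors, ≥10) at 0.7 million viable cells/mL in Krebs-Heinslet buffer pH 7.3, compound 1 uM, ≤0.01% DMSO. Incubated at 37° C./5% CO2 up to 2 h, acetonitrile-quenched; parent peak area by HPLC-MS/MS.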

[3] = Microsomal Stability Assay, human liver microsomes; format: in vitro ADME
Experimental: (§1) Samples were then mixed and centrifuged. Supernatants were used for HPLC-MS/MS analysis. […] Peak areas corresponding to the test compound were recorded.

[4] = Microsomal Stability Assay, mouse liver microsomes; format: in vitro ADME
Experimental: as §1

IC50 [1]: 0.1 to 1 µM
hepatocyte CLint at 1 uM ([2]; male, CD-1, cryopreserved hepatocytes, pH 7.3, mouse hepatocytes 0.7 million cells per mL, 1 uM compound): < 8.2 µL/min/1e6 cells
Hepatocyte Stability Mouse % rem. 120 min ([2]; mouse hepatocytes, 120 min): H (% remaining = 75-100%)
microsomal CLint at 0.1 uM ([3]; both sexes, pH 7.4, human liver microsomes 0.1 mg/mL, 0.1 uM compound): < 116 µL/min/mg
Microsomal Stability Human % rem. 60 min ([3]; human liver microsomes, 60 min): G (% remaining = 50-75%)
microsomal CLint at 0.1 uM ([4]; male, CD-1, pH 7.4, mouse liver microsomes 0.1 mg/mL, 0.1 uM compound): < 116 µL/min/mg
Microsomal Stability Mouse % rem. 60 min ([4]; mouse liver microsomes, 60 min): G (% remaining = 50-75%)
Compound: CN(C)C(=O)COc1cnc(N[C@H]2CC[C@@H](Oc3nc(N4CCOCC4)cc4ncc(NS(C)(=O)=O)cc34)CC2)nc1 [Compound 182, N,N-dimethyl-2-((2-(((1s,4s)-4-((3-(methylsulfonamido)-7-morpholino-1,6-naphthyridin-5-yl)oxy)cyclohexyl)amino)pyrimidin-5-yl)oxy)acetamide]
